Where two headings read alike, the source gives them in different places.
Target: T1, full-length human PKCι (Homo sapiens, UniProt P41743)
T1 construct: Recombinant, full-length human PKCι expressed in Sf21 insect cells is also commercially available; purchased; host or cells: Sf21 insect cells
T1 sequence (P41743 1-596): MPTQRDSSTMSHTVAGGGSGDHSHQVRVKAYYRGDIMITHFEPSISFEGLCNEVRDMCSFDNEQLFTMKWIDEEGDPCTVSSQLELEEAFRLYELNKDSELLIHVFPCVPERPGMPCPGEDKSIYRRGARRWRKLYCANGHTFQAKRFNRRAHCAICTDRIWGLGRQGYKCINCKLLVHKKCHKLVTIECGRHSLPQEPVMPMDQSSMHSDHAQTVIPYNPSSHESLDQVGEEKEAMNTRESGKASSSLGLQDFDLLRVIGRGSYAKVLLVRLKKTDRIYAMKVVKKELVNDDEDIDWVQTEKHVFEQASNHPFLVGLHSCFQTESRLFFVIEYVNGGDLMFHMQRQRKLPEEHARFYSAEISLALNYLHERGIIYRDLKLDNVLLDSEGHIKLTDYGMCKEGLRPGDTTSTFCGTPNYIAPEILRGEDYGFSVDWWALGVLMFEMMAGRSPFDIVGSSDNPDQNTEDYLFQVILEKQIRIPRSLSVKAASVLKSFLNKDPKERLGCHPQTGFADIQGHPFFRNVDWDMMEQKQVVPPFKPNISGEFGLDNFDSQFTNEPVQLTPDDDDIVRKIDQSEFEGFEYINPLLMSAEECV
Assay: PKCι IC50 IMAP fluorescence polarisation assay, full-length enzyme
Type: biochemical
Settings: full length PKCi at 15 μM ATP

[1] = read-out: IC50 in IMAP assay against full length PKCi
[2] = read-out: IC50 in IMAP assay against full length PKCi (Activity)

| SMILES | IC50 [1] | IC50 [2] |
| --- | --- | --- |
| Cc1sc2c(NC[C@@H](N)Cc3ccccc3)nc(-c3ccncc3)nc2c1-c1cc(F)ccc1OC(C)C [compound 446, (S)-N*1*-[7-(5-Fluoro-2-isopropoxy-phenyl)-6-methyl-2-pyridin-4-yl-thieno[3,2-d]pyrimidin-4-yl]-3-phenyl-propane-1,2-diamine] | 10 to 40 µM |  |
| N[C@H](CNc1nc(-c2ccncc2)nc2c(C#CCCCO)csc12)Cc1ccccc1 [compound 535, 5-[4-((S)-2-Amino-3-phenyl-propylamino)-2-pyridin-4-yl-thieno[3,2-d]pyrimidin-7-yl]-pent-4-yn-1-ol] | 1 to 10 µM |  |
| N[C@H](CNc1nc(-c2ccncc2)nc2c(C#Cc3ccccn3)csc12)Cc1ccccc1 [compound 529, (S)-3-Phenyl-N*1*-(2-pyridin-4-yl-7-pyridin-2-ylethynyl-thieno[3,2-d]pyrimidin-4-yl)-propane-1,2-diamine] | 0.1 to 1 µM |  |
| CCOc1ccc(Cl)cc1-c1c(C)sc2c(NC[C@@H](N)Cc3ccccc3)nc(-c3ccncc3)nc12 [compound 463, (S)-N*1*-[7-(5-Chloro-2-ethoxy-phenyl)-6-methyl-2-pyridin-4-yl-thieno[3,2-d]pyrimidin-4-yl]-3-phenyl-propane-1,2-diamine] | 10 to 40 µM |  |
| CNc1ccc(-c2c(C(C)(C)C)sc3c(NC[C@@H](N)Cc4ccccc4)nc(-c4ccncc4)nc23)cc1 [compound 448, (S)-N*1*-[6-tert-Butyl-7-(4-methylamino-phenyl)-2-pyridin-4-yl-thieno[3,2-d]pyrimidin-4-yl]-3-phenyl-propane-1,2-diamine] | 1 to 10 µM |  |
| N[C@H](CNc1nc(-c2ccncc2)nc2c(Cl)csc12)Cc1ccccc1 [compound 306, (S)—N*1*-(7-Chloro-2-pyridin-4-yl-thieno[3,2-d]pyrimidin-4-yl)-3-phenyl-propane-1,2-diamine] | < 0.1 µM |  |
| c1cc(-c2nc(N[C@@H]3CCNC3)c3sccc3n2)ccn1 [compound 317, (2-Pyridin-4-yl-thieno[3,2-d]pyrimidin-4-yl)-(R)-pyrrolidin-3-yl-amine] | 1 to 10 µM |  |
| COc1cccc(OCC(C)C)c1-c1c(C)sc2c(NC[C@@H](N)Cc3ccccc3)nc(-c3ccncc3)nc12 [compound 455, (S)-N*1*-[7-(2-Isobutoxy-6-methoxy-phenyl)-6-methyl-2-pyridin-4-yl-thieno[3,2-d]pyrimidin-4-yl]-3-phenyl-propane-1,2-diamine] | 10 to 40 µM |  |
| Cc1cccc(C[C@H](N)CNc2nc(-c3ccncc3)nc3sc4c(c23)CCCC4)c1 [compound 48, (S)-N*1*-(2-Pyridin-4-yl-5,6,7,8-tetrahydro-benzo[4,5]thieno[2,3-d]pyrimidin-4-yl)-3-m-tolyl-propane-1,2-diamine] |  | 0.1 to 1 µM |
| N[C@H](CNc1nc(-c2ccncc2)nc2c(Nc3ccccn3)csc12)Cc1ccccc1 [compound 486, N*4*-((S)-2-Amino-3-phenyl-propyl)-2-pyridin-4-yl-N*7*-pyridin-2-yl-thieno[3,2-d]pyrimidine-4,7-diamine] | < 0.1 µM |  |
| NC(=O)CNc1nc(-c2ccncc2)nc2c(Br)csc12 [compound 338, 2-(7-Bromo-2-pyridin-4-yl-thieno[3,2-d]pyrimidin-4-ylamino)-acetamide] | 10 to 40 µM |  |
| O=C(Nc1cc(-c2nc(N[C@@H]3CCNC3)c3sccc3n2)ccn1)c1ccc(F)cc1 [compound 618, 4-Fluoro-N-{4-[4-((R)-pyrrolidin-3-ylamino)-thieno[3,2-d]pyrimidin-2-yl]-pyridin-2-yl}-benzamide] | 0.1 to 1 µM |  |
| COc1ccc(F)cc1-c1c(C)sc2c(NC[C@@H](N)Cc3ccccc3)nc(-c3ccncc3)nc12 [compound 467, (S)-N*1*-[7-(5-Fluoro-2-methoxy-phenyl)-6-methyl-2-pyridin-4-yl-thieno[3,2-d]pyrimidin-4-yl]-3-phenyl-propane-1,2-diamine] | 10 to 40 µM |  |
| Cc1noc(C)c1-c1csc2c(NCC(N)Cc3ccccc3)nc(-c3ccncc3F)nc12 (stereo in doubt) [compound 428, (R)-N*1*-[7-(3,5-Dimethyl-isoxazol-4-yl)-2-(3-fluoro-pyridin-4-yl)-thieno[3,2-d]pyrimidin-4-yl]-3-phenyl-propane-1,2-diamine] | 1 to 10 µM |  |
| CC(C)(C)OC(=O)N1CCc2c(sc3nc(-c4ccncc4)nc(NC[C@@H](N)Cc4ccccc4)c23)C1 [compound 90, 4-((S)-2-Amino-3-phenyl-propylamino)-2-pyridin-4-yl-5,8-dihydro-6H-pyrido[4′,3′:4,5]thieno[2,3-d]pyrimidine-7-carboxylic acid tert-butyl ester] |  | 1 to 10 µM |
| CC#Cc1csc2c(NC[C@@H](N)Cc3ccccc3)nc(-c3ccncc3)nc12 [compound 542, (S)-3-Phenyl-N*1*-(7-prop-1-ynyl-2-pyridin-4-yl-thieno[3,2-d]pyrimidin-4-yl)-propane-1,2-diamine] | < 0.1 µM |  |

| SMILES | IC50 [1] | IC50 [2] |
| --- | --- | --- |
| NC(CNc1nc(-c2ccncc2F)nc2c(-c3ccoc3)csc12)Cc1ccccc1 (stereo in doubt) [compound 426, (R)-N*1*-[2-(3-Fluoro-pyridin-4-yl)-7-furan-3-yl-thieno[3,2-d]pyrimidin-4-yl]-3-phenyl-propane-1,2-diamine] | 0.1 to 1 µM |  |
| Cc1nc(C)c(-c2c(C)sc3c(NC[C@@H](N)Cc4ccccc4)nc(-c4ccncc4)nc23)s1 [compound 457, (S)-N*1*-[7-(2,4-Dimethyl-thiazol-5-yl)-6-methyl-2-pyridin-4-yl-thieno[3,2-d]pyrimidin-4-yl]-3-phenyl-propane-1,2-diamine] | 10 to 40 µM |  |
| c1cc(-c2nc(NC[C@H]3CCCCN3)c3c4c(sc3n2)CCCC4)ccn1 [compound 62, (R)-1-Piperidin-2-ylmethyl-(2-pyridin-4-yl-5,6,7,8-tetrahydro-benzo[4,5]thieno[2,3-d]pyrimidin-4-yl)-amine] |  | 1 to 10 µM |
| CC(=O)N1CCc2c(sc3nc(-c4ccncc4)nc(NCCN)c23)C1 [compound 105, 1-[4-(2-Amino-ethylamino)-2-pyridin-4-yl-5,8-dihydro-6H-pyrido[4′,3′:4,5]thieno[2,3-d]pyrimidin-7-yl]-ethanone] |  | 1 to 10 µM |
| Cc1[nH]ncc1-c1nc(NC[C@@H](N)Cc2ccccc2)c2sccc2n1 [compound 634, (S)-N*1*-[2-(5-Methyl-1H-pyrazol-4-yl)-thieno[3,2-d]pyrimidin-4-yl]-3-phenyl-propane-1,2-diamine] | 1 to 10 µM |  |
| Cc1sc2c(NC[C@@H](N)Cc3ccccc3)nc(-c3ccncc3)nc2c1-c1ccccc1 [compound 449, (S)-N*1*-(6-Methyl-7-phenyl-2-pyridin-4-yl-thieno[3,2-d]pyrimidin-4-yl)-3-phenyl-propane-1,2-diamine] | 1 to 10 µM |  |
| C#Cc1csc2c(NC[C@@H](N)Cc3ccccc3)nc(-c3ccncc3)nc12 [compound 541, (S)-N*1*-(7-Ethynyl-2-pyridin-4-yl-thieno[3,2-d]pyrimidin-4-yl)-3-phenyl-propane-1,2-diamine] | < 0.1 µM |  |
| COC(C)(C)C#Cc1csc2c(NC[C@@H](N)Cc3ccccc3)nc(-c3ccncc3)nc12 [compound 520, (S)-N*1*-[7-(3-Methoxy-3-methyl-but-1-ynyl)-2-pyridin-4-yl-thieno[3,2-d]pyrimidin-4-yl]-3-phenyl-propane-1,2-diamine] | 0.1 to 1 µM |  |
| c1cc(-c2nc(N[C@@H]3CCCNC3)c3sccc3n2)ccn1 [compound 316, (R)-Piperidin-3-yl-(2-pyridin-4-yl-thieno[3,2-d]pyrimidin-4-yl)-amine] | 1 to 10 µM |  |
| N[C@H](CNc1nc(-c2ccncc2F)nc2c(Nc3ccccc3)csc12)Cc1ccccc1 [compound 491, N*4*-((S)-2-Amino-3-phenyl-propyl)-2-(3-fluoro-pyridin-4-yl)-N*7*-phenyl-thieno[3,2-d]pyrimidine-4,7-diamine] | 1 to 10 µM |  |
| NCCNc1nc(-c2ccncc2)nc2sc3c(c12)CCC1(C3)OCCO1 [compound 42] |  | 1 to 10 µM |
| CC(C)(C)c1sc2c(NC[C@@H](N)Cc3ccccc3)nc(-c3ccncc3)nc2c1-c1ccc(F)nc1 [compound 443, (S)-N*1*-[6-tert-Butyl-7-(6-fluoro-pyridin-3-yl)-2-pyridin-4-yl-thieno[3,2-d]pyrimidin-4-yl]-3-phenyl-propane-1,2-diamine] | 10 to 40 µM |  |
| N[C@@H](CNc1nc(-c2ccncc2)nc2sc3c(c12)CCCCC3)Cc1ccccc1 [compound 70, (R)-3-Phenyl-N*1*-(2-pyridin-4-yl-6,7,8,9-tetrahydro-5H-10-thia-1,3-diaza-benzo[a]azulen-4-yl)-propane-1,2-diamine] |  | 1 to 10 µM |
| COc1ccc(C(C)(C)C)cc1-c1c(C)sc2c(NC[C@@H](N)Cc3ccccc3)nc(-c3ccncc3)nc12 [compound 461, (S)-N*1*-[7-(5-tert-Butyl-2-methoxy-phenyl)-6-methyl-2-pyridin-4-yl-thieno[3,2-d]pyrimidin-4-yl]-3-phenyl-propane-1,2-diamine] | 10 to 40 µM |  |
| COc1ccncc1-c1c(C)sc2c(NC[C@@H](N)Cc3ccccc3)nc(-c3ccncc3)nc12 [compound 439, (S)-N*1*-[7-(4-Methoxy-pyridin-3-yl)-6-methyl-2-pyridin-4-yl-thieno[3,2-d]pyrimidin-4-yl]-3-phenyl-propane-1,2-diamine] | 10 to 40 µM |  |
